molecular target: T1, soluble guanylate cyclase (sGC) (Homo sapiens, UniProt Q02108+Q02153); experiment: sGC-HEK-cGMP assay with LC/MS detection; type: cell-based; settings: HEK293 cells, 10 μM DETA-NONOate; concentration eliciting 50% of high control response (30 μM Compound Y); read-out: sGC_HEK_LC MS EC50 Abs
T1 construct: endogenously expressing soluble guanylate cyclase (sGC); endogenous in cells; host or cells: HEK293
T1 sequence (Q02153 1-619): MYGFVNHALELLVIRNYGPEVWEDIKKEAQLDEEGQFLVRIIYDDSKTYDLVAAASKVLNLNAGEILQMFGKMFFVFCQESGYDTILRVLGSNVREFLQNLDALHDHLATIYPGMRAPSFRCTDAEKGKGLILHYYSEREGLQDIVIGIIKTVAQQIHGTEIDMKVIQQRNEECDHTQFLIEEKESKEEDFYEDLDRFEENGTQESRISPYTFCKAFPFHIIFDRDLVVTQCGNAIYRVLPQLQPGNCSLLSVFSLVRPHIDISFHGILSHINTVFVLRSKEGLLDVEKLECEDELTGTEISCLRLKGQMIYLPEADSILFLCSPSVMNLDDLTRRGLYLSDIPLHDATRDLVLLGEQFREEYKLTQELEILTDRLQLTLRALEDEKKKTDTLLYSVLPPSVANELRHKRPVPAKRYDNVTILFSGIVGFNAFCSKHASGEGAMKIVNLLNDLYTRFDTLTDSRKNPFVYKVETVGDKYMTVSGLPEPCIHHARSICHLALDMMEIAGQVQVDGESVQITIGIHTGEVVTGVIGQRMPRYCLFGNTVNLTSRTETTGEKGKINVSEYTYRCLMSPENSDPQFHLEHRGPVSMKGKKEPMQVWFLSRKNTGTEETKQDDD
T1 sequence (Q02108 1-690): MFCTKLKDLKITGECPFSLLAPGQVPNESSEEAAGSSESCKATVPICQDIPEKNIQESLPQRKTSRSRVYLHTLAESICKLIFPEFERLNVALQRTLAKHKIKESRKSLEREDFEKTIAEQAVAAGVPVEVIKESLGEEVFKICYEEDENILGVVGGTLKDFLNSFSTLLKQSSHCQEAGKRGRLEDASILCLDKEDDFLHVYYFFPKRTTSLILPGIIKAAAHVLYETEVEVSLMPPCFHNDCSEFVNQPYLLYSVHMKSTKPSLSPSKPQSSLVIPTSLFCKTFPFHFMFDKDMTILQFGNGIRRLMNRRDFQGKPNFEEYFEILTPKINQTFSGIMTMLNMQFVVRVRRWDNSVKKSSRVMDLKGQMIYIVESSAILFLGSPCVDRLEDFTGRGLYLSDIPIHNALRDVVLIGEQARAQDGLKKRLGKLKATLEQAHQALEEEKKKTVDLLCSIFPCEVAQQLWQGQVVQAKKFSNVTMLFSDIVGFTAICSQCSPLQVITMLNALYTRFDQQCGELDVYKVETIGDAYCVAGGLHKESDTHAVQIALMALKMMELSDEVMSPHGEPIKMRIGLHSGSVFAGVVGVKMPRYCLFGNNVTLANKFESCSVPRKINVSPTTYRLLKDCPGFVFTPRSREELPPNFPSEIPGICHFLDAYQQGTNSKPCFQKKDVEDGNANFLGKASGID
Experimental: Human embryonic kidney cells (HEK293), endogenously expressing soluble guanylate cyclase (sGC), were used to evaluate the activity of test compounds. Compounds stimulating the sGC enzyme should cause an increase in the intracellular concentration of cGMP. HEK 293 cells were seeded in Dulbecco's Modification of Eagle's Medium supplemented with fetal bovine serum (10% final) and penicillin (100 U/mL)/streptomycin (100 ug/mL) in a […] at a density of 1.5×10^4 cells/well in a poly-D-lysine coated 384 well flat bottom plate. Cells were incubated overnight at 37° C. in a humidified chamber with 5% CO2. Medium was aspirated and cells were washed with 1× Hank's Buffered Saline Salt Solution […]. Cells were then incubated for 15 minutes at 37° C. with 50 μL of a 0.5 mM 3-isobutyl-1-methylxanthine (IBMX) solution. Test article and Diethylenetriamine NONOate (DETA-NONOate) solutions (x μM concentration for test article solution and 10 μM concentration for DETA-NONOate solution; wherein x is one of the following concentrations);
were then added to the assay mixture and the resulting mixture incubated at 37° C. for 20 minutes. After the 20 minute incubation, the assay mixture was aspirated and 10% acetic acid containing 150 ng/mL+3-cGMP (internal standard for LCMS) (50 μL) was added to the cells. The plate was incubated at 4° C. for 30 minutes in the acetic acid solution to stop the reaction and lyse the cells. The plates were then centrifuged at 1,000g for 3 minutes at 4° C. and the supernatant transferred to a clean reaction plate for LCMS analysis.
cGMP concentrations were determined from each sample using the LCMS conditions below (Table 2) and calculated standard curve. The standard curve was prepared in 10% acetic acid with 150 ng/mL+3cGMP (isotopically labelled cGMP with a weight 3 units higher than wild type) with the following final concentrations of cGMP in ng/mL: 1, 5, 10, 50, 100, 250, 500, 1000, 2000.
Data were normalized to a high control using the following equation: 100*(Sample−Low Control)/(High Control−Low Control), where the low control is the average of 16 samples treated with 1% DMSO, and the high control is the average of 16 samples treated with 30 μM of Compound Y depicted below. Data were fit using a 4-parameter fit (log(agonist) vs. response−variable slope) using GraphPad Prism Software v.5. n=2 for all compounds. The Absolute EC50 was interpolated from the curve fit and is defined as the concentration at which a given compound elicits 50% of the high control response. Compounds failing to elicit a minimum response of 50% are reported as >30 μM. For compounds run in duplicate or n higher than 2, the result herein given is the geometric mean of the several results obtained.
Code definitions for the whole cell HEK assay values, expressed as Absolute EC50 which is defined as the concentration at which a given compound elicits 50% of the high control response (Compound Y). Compounds failing to elicit a minimum response of 50% are reported as *.

Row | SMILES | EC50
1 | COc1cc(-c2nc(N)c3c(n2)NC(=O)C3(C)C(=O)NC2CC2)nn1Cc1ccccc1F (centres unmarked) [Compound I-44] | < 0.1 µM
2 | CCOC(=O)C1(C)C(=O)Nc2nc(-c3cc(OC)n(Cc4ccccc4F)n3)nc(N)c21 (centres unmarked) [Compound I-1, ethyl 4-amino-2-(1-(2-fluorobenzyl)-5-methoxy-1H-pyrazol-3-yl)-5-methyl-6-oxo-6,7-dihydro-5H-pyrrolo[2,3-d]pyrimidine-5-carboxylate] | < 0.1 µM
3 | CCOC(=O)C1(C)C(=O)Nc2nc(-c3cc(OC(F)F)n(Cc4ccccc4F)n3)nc(N)c21 (centres unmarked) [Compound I-72] | < 0.1 µM
4 | COc1cc(-c2ncc(F)c(N3CCS(=O)(=O)CC3)n2)nn1Cc1ccccc1F [Compound I-63] | > 30 µM

test system: lambs with acute pulmonary hypertension; experiment: not given; settings: after inhaling the microparticles; cited from earlier work

Row | SMILES | magnitude and duration of pulmonary vasodilation induced by iNO
5 | Nc1nc(-c2nn(Cc3ccccc3F)c3ncccc23)nc(N)c1N1CCOCC1 [BAY 41-8543] | augmented

same assay, conditions: inhaled microparticles after ODQ; cited from earlier work

Row | SMILES | pulmonary vasodilation and transpulmonary cGMP release after treatment with ODQ
6 | O=C(O)CCCCN(CCc1ccccc1OCc1ccc(CCc2ccccc2)cc1)Cc1ccc(C(=O)O)cc1 [BAY 58-2667] | greatly enhanced

same assay, conditions: inhaled microparticles with excipients; awake lambs, U-46619 infusion; cited from earlier work

Row | SMILES | effect on mean arterial pressure | pulmonary vasodilation | transpulmonary cGMP release
7 | Nc1nc(-c2nn(Cc3ccccc3F)c3ncccc23)ncc1C1CC1 [BAY 41-2272] | without significant effect on mean arterial pressure | dose dependent pulmonary vasodilation | increased transpulmonary cGMP release
8 | Nc1nc(-c2nn(Cc3ccccc3F)c3ncccc23)nc(N)c1N1CCOCC1 [BAY 41-8543] | without significant effect on mean arterial pressure | dose dependent pulmonary vasodilation | increased transpulmonary cGMP release
9 | O=C(O)CCCCN(CCc1ccccc1OCc1ccc(CCc2ccccc2)cc1)Cc1ccc(C(=O)O)cc1 [BAY 58-2667] | without significant effect on mean arterial pressure | dose dependent pulmonary vasodilation | increased transpulmonary cGMP release

same assay, conditions: inhaled microparticles; cited from earlier work

Row | SMILES | systemic arterial oxygenation
10 | Nc1nc(-c2nn(Cc3ccccc3F)c3ncccc23)nc(N)c1N1CCOCC1 [BAY 41-8543] | increased systemic arterial oxygenation
11 | O=C(O)CCCCN(CCc1ccccc1OCc1ccc(CCc2ccccc2)cc1)Cc1ccc(C(=O)O)cc1 [BAY 58-2667] | increased systemic arterial oxygenation

same assay, conditions: intravenous administration; cited from earlier work

Row | SMILES | effect on pulmonary vasodilator effect of iNO
12 | O=c1onc2cnc3ccccc3n12 [ODQ, 1H-[1,2,4]oxadiazolo[4,3-a]quinoxalin-1-one] | markedly reduced the pulmonary vasodilator effect of iNO

molecular target: T2, human recombinant soluble guanylate cyclase enzyme α1β1 (h sGC) (Homo sapiens, UniProt Q02108+Q02153); experiment: Purified human recombinant sGC α1β1 enzyme assay in the presence of DETA-NONOate (cGMP HTRF); type: biochemical; settings: not given
T2 construct: purchased Enzo Life Sciences ALX-201-177
T2 sequence (Q02108 1-690): T1 sequence (Q02108 1-690)
T2 sequence (Q02153 1-619): T1 sequence (Q02153 1-619)
Experimental: Purified human recombinant soluble guanylate cyclase enzyme α1β1 (h sGC) obtained from Enzo Life Sciences (P/N: ALX-201-177) was used to evaluate the activity of test compounds. The assay reactions contained 0.1 M Tris (pH 8.0), 0.5 mg/mL BSA, 2 mM DTT, 4 mM MgCl2, 30 uM DETA NONOate (Enzo Life Science P/N: ALX-430-014), and 12.5 ng/ml human soluble guanylate cyclase enzyme. […] Guanosine 5′-triphosphate (Sigma-Aldrich P/N: G8877) was added to a final concentration of 300 μM and enzyme reactions were incubated (100 μL, 384-well plate format) at 37° C. for 20 minutes. The controls contained 3% DMSO (low control), or 30 uM of Compound Y (high control). After the 20 minute incubation, the reaction was stopped with the addition of 100 μL of ice cold 20% acetic acid.
cGMP concentrations in all samples were determined using the cGMP HTRF (Cisbio P/N: 62GM2PEC) assay per manufacturer's instructions. A cGMP standard curve was fit using a 4-parameter fit (log(inhibitor) vs. response—variable slope) using GraphPad Prism Software v.6. Samples were diluted appropriately to ensure that values fell within the linear range of the standard curve. The EC50 was interpolated from the curve fit and is defined as the concentration at which the compound elicits 50% of the maximal response of the 30 uM of Compound Y, the high control compound.

Row | SMILES | EC50
13 | CCOC(=O)C1(C)C(=O)Nc2nc(-c3nn(Cc4ccccc4F)c(=O)n3C)nc(N)c21 (centres unmarked) [Compound I-29] | 2 to 5 µM
14 | CCOC(=O)C1(C)C(=O)Nc2nc(-c3nc(OC)n(Cc4ccccc4F)n3)nc(N)c21 (centres unmarked) [Compound I-30] | 2 to 5 µM

same assay, conditions: 30 uM DETA NONOate; concentration eliciting 50% of high control response (30 uM Compound Y); read-out: sGC_Enz_HTRF_a1b1 EC50 Abs

Row | SMILES | EC50
15 | COc1nc(-c2nc(N)c3c(n2)NC(=O)C3(C)C(N)=O)nn1Cc1ccccc1F (centres unmarked) [Compound I-17] | > 5 µM
16 | CCOC(=O)C1(C)C(=O)Nc2nc(-c3cc(OC)n(Cc4ccccc4F)n3)nc(N)c21 (centres unmarked) [Compound I-1, ethyl 4-amino-2-(1-(2-fluorobenzyl)-5-methoxy-1H-pyrazol-3-yl)-5-methyl-6-oxo-6,7-dihydro-5H-pyrrolo[2,3-d]pyrimidine-5-carboxylate] | < 2 µM
17 | COc1cc(-c2ncc(F)c(NCc3cc(=O)[nH]o3)n2)nn1Cc1ccccc1F [Compound I-19] | 2 to 5 µM
18 | CC1(C(N)=O)C(=O)Nc2nc(-c3cc(O)n(Cc4ccccc4F)n3)nc(N)c21 (centres unmarked) [Compound I-48] | > 5 µM
19 | CCOC(=O)C1(C)C(=O)Nc2nc(-c3nn(Cc4ccccc4F)c(=O)[nH]3)nc(N)c21 (centres unmarked) [Compound I-21] | > 5 µM
20 | CC1(C(N)=O)C(=O)Nc2nc(-c3nn(Cc4ccccc4F)c(=O)[nH]3)nc(N)c21 (centres unmarked) [Compound I-10] | > 30 µM
21 | COc1cc(-c2ncc(F)c(NCC(O)(C(N)=O)C(F)(F)F)n2)nn1Cc1ccccc1F (centres unmarked) [Compound I-20] | < 2 µM
22 | COc1cc(-c2ncc(F)c(NCC(=O)O)n2)nn1Cc1ccccc1F [Compound I-9] | > 5 µM
23 | COc1nc(-c2nc(N)c3c(n2)NC(=O)C3(C)C(=O)NC2CC2)nn1Cc1ccccc1F (centres unmarked) [Compound I-37] | 2 to 5 µM
24 | Cn1c(-c2nc(N)c3c(n2)NC(=O)C3(C)C(=O)NC2CC2)nn(Cc2ccccc2F)c1=O (centres unmarked) [Compound I-38] | < 2 µM
25 | COc1cc(-c2nccc(N)n2)nn1Cc1ccccc1F [Compound I-6] | > 5 µM
26 | COc1cc(-c2ncc(F)c(N3CCC[C@H](C)[C@@H]3C(=O)O)n2)nn1Cc1ccccc1F [Compound I-70] | 2 to 5 µM
27 | COc1cc(-c2ncc(F)c(NCC(O)CO)n2)nn1Cc1ccccc1F (centres unmarked) [Compound I-64] | 2 to 5 µM
28 | COc1cc(-c2ncc(F)c(NCCO)n2)nn1Cc1ccccc1F [Compound I-13] | 2 to 5 µM
29 | O=c1[nH]c(-c2cc(OC(F)F)n(Cc3ccccc3F)n2)ncc1F [Compound I-4] | > 5 µM
30 | Fc1cnc(-c2cc(OC(F)F)n(Cc3cccc(F)c3F)n2)nc1 [Compound I-59] | > 5 µM
31 | COc1cc(-c2ncc(F)c(=O)[nH]2)nn1Cc1ccccc1F [Compound I-5] | > 5 µM
32 | Cn1c(-c2nc(N)c3c(n2)NC(=O)C3(C)C(N)=O)nn(Cc2ccccc2F)c1=O (centres unmarked) [Compound I-18] | > 5 µM
